Assay results: the NIST ThermoML archive (doi:10.1021/je100507n)
Numbers after ± are expanded uncertainties.

Columns and labels:
[1] = Molar enthalpy of transition or fusion
[2] = for mass density: 101.33 kPa, Buoyancy - hydrostatic balance with magnetic suspension - one sinker; for mass density / surface tension liquid-gas: Liquid; for surface tension liquid-gas: Ring tensiometer

CC[n+]1ccccc1.O=S(=O)([N-]S(=O)(=O)C(F)(F)F)C(F)(F)F [1-ethylpyridinium bis[(trifluoromethyl)sulfonyl]imide]
Details	Glass transition temperature [°C]	Molar enthalpy of transition or fusion [kcal/mol]	Normal melting temperature [°C]	Triple point temperature [K]	mass density [kg/m3]	surface tension liquid-gas [mN/m]
[1], Crystal 1	–	4.52 ± 0.55	–	–	–	–
[2], 288.15 K	–	–	–	–	1545.7 ± 13	37.7 ± 1.1
[2], 293.15 K	–	–	–	–	1541.4 ± 13	37.6 ± 1.1
[2], 298.15 K	–	–	–	–	1537.5 ± 13	37.4 ± 1.1
[2], 303.15 K	–	–	–	–	1533.2 ± 13	37.1 ± 1.1
[2], 308.15 K	–	–	–	–	1529.1 ± 13	36.9 ± 1.1
[2], 313.15 K	–	–	–	–	1524.9 ± 13	36.7 ± 1
[2], 318.15 K	–	–	–	–	1520.5 ± 13	36.6 ± 1
[2], 323.15 K	–	–	–	–	1516.4 ± 12	36.4 ± 1
[2], 328.15 K	–	–	–	–	1512.2 ± 12	36.1 ± 1
[2], 333.15 K	–	–	–	–	1507.8 ± 12	35.9 ± 1
[2], 338.15 K	–	–	–	–	1503.7 ± 12	35.6 ± 1
[2], Crystal 1, DTA	–	–	30.50 ± 1	–	–	–
[2], Crystal 2, DTA	–	–	–	292.8 ± 0.5	–	–
[2], DTA	-37.91 ± 3	–	–	–	–	–

CCCCC[n+]1ccccc1.O=S(=O)([N-]S(=O)(=O)C(F)(F)F)C(F)(F)F [1-pentylpyridinium bis(trifluoromethylsulfonyl)amide]
Details	Glass transition temperature [°C]	Molar enthalpy of transition or fusion [kcal/mol]	mass density [kg/m3]	surface tension liquid-gas [mN/m]
[1], Crystal	–	5.45 ± 0.645	–	–
[2], 283.15 K	–	–	1433.1 ± 11	33.1 ± 1
[2], 288.15 K	–	–	1429.6 ± 11	32.8 ± 0.9
[2], 293.15 K	–	–	1425.9 ± 11	32.7 ± 0.9
[2], 298.15 K	–	–	1421.4 ± 11	32.5 ± 0.9
[2], 303.15 K	–	–	1416.9 ± 11	32.2 ± 0.9
[2], 308.15 K	–	–	1412.8 ± 11	32 ± 0.9
[2], 313.15 K	–	–	1408.3 ± 11	31.8 ± 0.9
[2], 318.15 K	–	–	1403.8 ± 11	31.5 ± 0.9
[2], 323.15 K	–	–	1398.9 ± 11	31.3 ± 0.9
[2], 328.15 K	–	–	1394.2 ± 11	31.1 ± 0.9
[2], 333.15 K	–	–	1389.3 ± 10	30.8 ± 0.9
[2], 338.15 K	–	–	1385.1 ± 10	30.5 ± 0.9
[2], DTA	-76.93 ± 3	–	–	–

Details	Normal melting temperature [°C]
[2], Crystal, DTA	-0.31 ± 1

CCCC[n+]1ccccc1.O=S(=O)([N-]S(=O)(=O)C(F)(F)F)C(F)(F)F [1-butylpyridinium bis[(trifluoromethyl)sulfonyl]imide]
Details	Molar enthalpy of transition or fusion, [1] [kcal/mol]	mass density, [2] [kg/m3]	surface tension liquid-gas, [2] [mN/m]
298.15 K	–	1454.7 ± 12	33.4 ± 1
303.15 K	–	1450.6 ± 12	33.2 ± 1
308.15 K	–	1446.2 ± 11	32.9 ± 0.9
313.15 K	–	1441.7 ± 11	32.8 ± 0.9
318.15 K	–	1437.2 ± 11	32.4 ± 0.9
323.15 K	–	1433.2 ± 11	32.1 ± 0.9
328.15 K	–	1429.1 ± 11	32 ± 0.9
333.15 K	–	1424.5 ± 11	31.8 ± 0.9
338.15 K	–	1420.5 ± 11	–
Crystal	6.67 ± 0.765	–	–

Details	Normal melting temperature [°C]
[2], Crystal, DTA	25.90 ± 1
